Measured values: PubChem BioAssay (NCI)
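Exposure lasted 48 hours, with cells grown in 96-well plates and compounds tested at five concentrations. TGI: concentration producing complete growth inhibition.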

Columns and labels:
Assay in all cases: growth of human tumour cells (NCI), 48 h
DU-145 prostate = system: DU-145 prostate
SK-OV-3 ovarian = system: SK-OV-3 ovarian
EKVX NSCLC = system: EKVX NSCLC
MALME-3M melanoma = system: MALME-3M melanoma
PC-3 prostate = system: PC-3 prostate
NCI-H226 lung = system: NCI-H226 lung
NCI/ADR-RES ovarian = system: NCI/ADR-RES ovarian
SNB-75 CNS = system: SNB-75 CNS
SF-295 CNS = system: SF-295 CNS
K-562 leukemia = system: K-562 leukemia
MDA-N = system: MDA-N
CCRF-CEM leukemia = system: CCRF-CEM leukemia
UO-31 renal = system: UO-31 renal
IGROV1 ovarian = system: IGROV1 ovarian
CAKI-1 renal = system: CAKI-1 renal
UACC-62 melanoma = system: UACC-62 melanoma
M14 melanoma = system: M14 melanoma
RPMI-8226 leukemia = system: RPMI-8226 leukemia
SN12C renal = system: SN12C renal
KM12 colon = system: KM12 colon
OVCAR-4 ovarian = system: OVCAR-4 ovarian
MDA-MB-231 breast = system: MDA-MB-231 breast
RXF 393 renal = system: RXF 393 renal
HOP-62 NSCLC = system: HOP-62 NSCLC
SK-MEL-5 melanoma = system: SK-MEL-5 melanoma
HCC-2998 colon = system: HCC-2998 colon
MDA-MB-435 = system: MDA-MB-435
SF-268 CNS = system: SF-268 CNS
SK-MEL-2 melanoma = system: SK-MEL-2 melanoma
UACC-257 melanoma = system: UACC-257 melanoma
OVCAR-8 ovarian = system: OVCAR-8 ovarian
COLO 205 colon = system: COLO 205 colon
OVCAR-3 ovarian = system: OVCAR-3 ovarian
T-47D breast = system: T-47D breast
ACHN renal = system: ACHN renal
SK-MEL-28 melanoma = system: SK-MEL-28 melanoma
NCI-H522 lung = system: NCI-H522 lung
U251 CNS = system: U251 CNS
SNB-19 CNS = system: SNB-19 CNS
MOLT-4 leukemia = system: MOLT-4 leukemia
786-0 renal = system: 786-0 renal
OVCAR-5 ovarian = system: OVCAR-5 ovarian
HCT-116 colon = system: HCT-116 colon
HT29 colon = system: HT29 colon
NCI-H460 lung = system: NCI-H460 lung
HS 578T breast = system: HS 578T breast
A549 NSCLC = system: A549 NSCLC
SW-620 colon = system: SW-620 colon
BT-549 breast = system: BT-549 breast
HCT-15 colon = system: HCT-15 colon
TK-10 renal = system: TK-10 renal
HL-60(TB) leukemia = system: HL-60(TB) leukemia
MCF7 breast = system: MCF7 breast
NCI-H23 lung = system: NCI-H23 lung
A498 renal = system: A498 renal
HOP-92 NSCLC = system: HOP-92 NSCLC
SF-539 CNS = system: SF-539 CNS
LOX IMVI melanoma = system: LOX IMVI melanoma
SR leukemia = system: SR leukemia

O=S(c1ccc(Cl)cc1)c1ccccc1C1=NCCN1 (stereo not given)
TGI (DU-145 prostate): > 100 µM
TGI (SK-OV-3 ovarian): > 100 µM
TGI (EKVX NSCLC): > 100 µM
TGI (MALME-3M melanoma): > 100 µM
TGI (PC-3 prostate): > 100 µM
TGI (NCI-H226 lung): > 100 µM
TGI (NCI/ADR-RES ovarian): > 100 µM
TGI (SNB-75 CNS): > 100 µM
TGI (SF-295 CNS): > 100 µM
TGI (K-562 leukemia): > 100 µM
TGI (MDA-N): > 100 µM
TGI (CCRF-CEM leukemia): > 100 µM
TGI (UO-31 renal): > 100 µM
TGI (IGROV1 ovarian): > 100 µM
TGI (CAKI-1 renal): > 100 µM
TGI (UACC-62 melanoma): > 100 µM
TGI (M14 melanoma): > 100 µM
TGI (RPMI-8226 leukemia): > 100 µM
TGI (SN12C renal): > 100 µM
TGI (KM12 colon): > 100 µM
TGI (OVCAR-4 ovarian): > 100 µM
TGI (MDA-MB-231 breast): > 100 µM
TGI (RXF 393 renal): > 100 µM
TGI (HOP-62 NSCLC): > 100 µM
TGI (SK-MEL-5 melanoma): > 100 µM
TGI (HCC-2998 colon): > 100 µM
TGI (MDA-MB-435): > 100 µM
TGI (SF-268 CNS): > 100 µM
TGI (SK-MEL-2 melanoma): > 100 µM
TGI (UACC-257 melanoma): > 100 µM
TGI (OVCAR-8 ovarian): > 100 µM
TGI (COLO 205 colon): > 100 µM
TGI (OVCAR-3 ovarian): > 100 µM
TGI (T-47D breast): > 100 µM
TGI (ACHN renal): > 100 µM
TGI (SK-MEL-28 melanoma): > 100 µM
TGI (NCI-H522 lung): > 100 µM
TGI (U251 CNS): > 100 µM
TGI (SNB-19 CNS): > 100 µM
TGI (MOLT-4 leukemia): > 100 µM
TGI (786-0 renal): > 100 µM
TGI (OVCAR-5 ovarian): > 100 µM
TGI (HCT-116 colon): > 100 µM
TGI (HT29 colon): > 100 µM
TGI (NCI-H460 lung): > 100 µM
TGI (HS 578T breast): > 100 µM
TGI (A549 NSCLC): > 100 µM
TGI (SW-620 colon): > 100 µM
TGI (BT-549 breast): > 100 µM
TGI (HCT-15 colon): > 100 µM
TGI (TK-10 renal): > 100 µM
TGI (HL-60(TB) leukemia): > 100 µM
TGI (MCF7 breast): > 100 µM
TGI (NCI-H23 lung): > 100 µM

N#CCc1nc2cc(C(F)(F)F)ccc2s1
TGI (DU-145 prostate): > 100 µM
TGI (SK-OV-3 ovarian): > 100 µM
TGI (EKVX NSCLC): > 100 µM
TGI (MALME-3M melanoma): > 100 µM
TGI (NCI-H226 lung): > 100 µM
TGI (NCI/ADR-RES ovarian): > 100 µM
TGI (SNB-75 CNS): > 100 µM
TGI (SF-295 CNS): > 100 µM
TGI (MDA-N): > 100 µM
TGI (CAKI-1 renal): > 100 µM
TGI (RPMI-8226 leukemia): > 100 µM
TGI (SN12C renal): > 100 µM
TGI (KM12 colon): > 100 µM
TGI (OVCAR-4 ovarian): > 100 µM
TGI (MDA-MB-231 breast): > 100 µM
TGI (RXF 393 renal): > 100 µM
TGI (HOP-62 NSCLC): > 100 µM
TGI (A498 renal): > 100 µM
TGI (SK-MEL-5 melanoma): > 100 µM
TGI (MDA-MB-435): > 100 µM
TGI (HOP-92 NSCLC): 48.1 µM
TGI (SF-539 CNS): > 100 µM
TGI (LOX IMVI melanoma): 80.2 µM
TGI (SF-268 CNS): > 100 µM
TGI (UACC-257 melanoma): > 100 µM
TGI (OVCAR-8 ovarian): 87.4 µM
TGI (COLO 205 colon): > 100 µM
TGI (OVCAR-3 ovarian): 75.8 µM
TGI (T-47D breast): > 100 µM
TGI (ACHN renal): > 100 µM
TGI (NCI-H522 lung): 34.5 µM
TGI (U251 CNS): > 100 µM
TGI (MOLT-4 leukemia): > 100 µM
TGI (786-0 renal): > 100 µM
TGI (OVCAR-5 ovarian): > 100 µM
TGI (HCT-116 colon): 95.2 µM
TGI (HT29 colon): > 100 µM
TGI (SW-620 colon): > 100 µM
TGI (BT-549 breast): > 100 µM
TGI (HCT-15 colon): > 100 µM
TGI (TK-10 renal): > 100 µM
TGI (NCI-H23 lung): 94.8 µM

S=C(N/N=C(\C(=N/NC(=S)N1CCCCC1)c1ccccn1)c1ccccn1)N1CCCCC1
TGI (DU-145 prostate): > 100 µM
TGI (SK-OV-3 ovarian): > 100 µM
TGI (EKVX NSCLC): > 100 µM
TGI (MALME-3M melanoma): > 100 µM
TGI (PC-3 prostate): > 100 µM
TGI (NCI-H226 lung): > 100 µM
TGI (NCI/ADR-RES ovarian): > 100 µM
TGI (SNB-75 CNS): > 100 µM
TGI (SF-295 CNS): > 100 µM
TGI (K-562 leukemia): > 100 µM
TGI (MDA-N): > 100 µM
TGI (CCRF-CEM leukemia): 57.4 µM
TGI (UO-31 renal): > 100 µM
TGI (IGROV1 ovarian): > 100 µM
TGI (CAKI-1 renal): > 100 µM
TGI (UACC-62 melanoma): > 100 µM
TGI (M14 melanoma): 50.3 µM
TGI (RPMI-8226 leukemia): > 100 µM
TGI (KM12 colon): > 100 µM
TGI (MDA-MB-231 breast): > 100 µM
TGI (RXF 393 renal): 73.4 µM
TGI (HOP-62 NSCLC): > 100 µM
TGI (A498 renal): 90.1 µM
TGI (SK-MEL-5 melanoma): > 100 µM
TGI (HCC-2998 colon): > 100 µM
TGI (MDA-MB-435): > 100 µM
TGI (HOP-92 NSCLC): > 100 µM
TGI (SF-539 CNS): > 100 µM
TGI (SR leukemia): > 100 µM
TGI (LOX IMVI melanoma): > 100 µM
TGI (SF-268 CNS): > 100 µM
TGI (UACC-257 melanoma): > 100 µM
TGI (OVCAR-8 ovarian): > 100 µM
TGI (COLO 205 colon): > 100 µM
TGI (OVCAR-3 ovarian): > 100 µM
TGI (ACHN renal): 91.6 µM
TGI (SK-MEL-28 melanoma): > 100 µM
TGI (NCI-H522 lung): > 100 µM
TGI (U251 CNS): > 100 µM
TGI (SNB-19 CNS): > 100 µM
TGI (MOLT-4 leukemia): > 100 µM
TGI (786-0 renal): > 100 µM
TGI (OVCAR-5 ovarian): > 100 µM
TGI (HCT-116 colon): > 100 µM
TGI (HT29 colon): > 100 µM
TGI (NCI-H460 lung): > 100 µM
TGI (HS 578T breast): > 100 µM
TGI (A549 NSCLC): > 100 µM
TGI (SW-620 colon): > 100 µM
TGI (BT-549 breast): > 100 µM
TGI (HCT-15 colon): > 100 µM
TGI (TK-10 renal): > 100 µM
TGI (HL-60(TB) leukemia): 19.8 µM
TGI (MCF7 breast): > 100 µM
TGI (NCI-H23 lung): > 100 µM

Cc1cn([C@@H]2C[C@H](CO)[C@@H]2O)c(=O)[nH]c1=O
TGI (DU-145 prostate): > 100 µM
TGI (EKVX NSCLC): > 100 µM
TGI (MALME-3M melanoma): > 100 µM
TGI (PC-3 prostate): > 100 µM
TGI (NCI-H226 lung): > 100 µM
TGI (NCI/ADR-RES ovarian): > 100 µM
TGI (SNB-75 CNS): > 100 µM
TGI (SF-295 CNS): > 100 µM
TGI (K-562 leukemia): > 100 µM
TGI (MDA-N): > 100 µM
TGI (CCRF-CEM leukemia): > 100 µM
TGI (UO-31 renal): > 100 µM
TGI (IGROV1 ovarian): > 100 µM
TGI (CAKI-1 renal): > 100 µM
TGI (RPMI-8226 leukemia): > 100 µM
TGI (SN12C renal): > 100 µM
TGI (KM12 colon): > 100 µM
TGI (OVCAR-4 ovarian): > 100 µM
TGI (MDA-MB-231 breast): > 100 µM
TGI (RXF 393 renal): > 100 µM
TGI (HOP-62 NSCLC): > 100 µM
TGI (A498 renal): > 100 µM
TGI (SK-MEL-5 melanoma): > 100 µM
TGI (HCC-2998 colon): > 100 µM
TGI (MDA-MB-435): > 100 µM
TGI (HOP-92 NSCLC): > 100 µM
TGI (SF-539 CNS): > 100 µM
TGI (SR leukemia): > 100 µM
TGI (LOX IMVI melanoma): > 100 µM
TGI (SF-268 CNS): > 100 µM
TGI (SK-MEL-2 melanoma): > 100 µM
TGI (UACC-257 melanoma): > 100 µM
TGI (OVCAR-8 ovarian): > 100 µM
TGI (COLO 205 colon): > 100 µM
TGI (OVCAR-3 ovarian): > 100 µM
TGI (ACHN renal): > 100 µM
TGI (SK-MEL-28 melanoma): > 100 µM
TGI (NCI-H522 lung): > 100 µM
TGI (U251 CNS): > 100 µM
TGI (MOLT-4 leukemia): > 100 µM
TGI (786-0 renal): > 100 µM
TGI (OVCAR-5 ovarian): > 100 µM
TGI (HCT-116 colon): > 100 µM
TGI (HT29 colon): > 100 µM
TGI (NCI-H460 lung): > 100 µM
TGI (HS 578T breast): > 100 µM
TGI (A549 NSCLC): > 100 µM
TGI (SW-620 colon): > 100 µM
TGI (BT-549 breast): > 100 µM
TGI (HCT-15 colon): > 100 µM
TGI (TK-10 renal): > 100 µM
TGI (HL-60(TB) leukemia): > 100 µM
TGI (MCF7 breast): > 100 µM
TGI (NCI-H23 lung): > 100 µM
